Reference: patent publication US8268814B2, “Substituted sulfonamide compounds” (Gruenenthal GmbH, priority 2008, dated 2012)

Columns and labels:
[1] = target: T1, B1R receptor of the rat (rB1R) (Rattus norvegicus, UniProt P97583); experiment: Functional FLIPR Ca2+ assay on the bradykinin 1 receptor, rat (rB1R CHO K1 cells); assay type: cell-based; conditions: test substance 10 μM; CHO K1 cells transfected with rat B1R gene; agonist Des-Arg9-bradykinin at EC80; % inhibition compared with maximum achievable inhibition; read-out: B1R antagonism, rat [10 μM] % inhibition
T1 construct: expressed in transfected cells; host or cells: CHO K1 cells (Chinese hamster ovary), stably transfected
T1 sequence (P97583 1-337): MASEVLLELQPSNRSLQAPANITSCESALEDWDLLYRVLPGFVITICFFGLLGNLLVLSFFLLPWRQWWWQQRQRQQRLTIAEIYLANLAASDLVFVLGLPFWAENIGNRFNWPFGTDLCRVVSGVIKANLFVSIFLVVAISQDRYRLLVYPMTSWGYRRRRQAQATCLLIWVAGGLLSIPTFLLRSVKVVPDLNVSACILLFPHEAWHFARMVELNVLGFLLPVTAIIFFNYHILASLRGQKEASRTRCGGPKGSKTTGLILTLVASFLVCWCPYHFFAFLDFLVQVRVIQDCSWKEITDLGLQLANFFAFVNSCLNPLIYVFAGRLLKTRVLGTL
In short: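 Stably transfected CHO K1 cells expressing human or rat B1R, Fluo-4-loaded, Ca2+ influx read by FLIPR (peak fluorescence). Compounds (10 μM for % activation) preincubated 10-20 min, then EC80 agonist added: Lys-Des-Arg9-bradykinin for human, Des-Arg9-bradykinin for rat; % inhibition versus maximal inhibition, IC50 from concentration series.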

[2] = target: T2, human B1R receptor (hB1R) (Homo sapiens, UniProt P46663); experiment: Functional FLIPR Ca2+ assay on the bradykinin 1 receptor, human (hB1R CHO K1 cells); assay type: cell-based; conditions: test substance 10 μM; CHO K1 cells transfected with human B1R gene; agonist Lys-Des-Arg9-bradykinin at EC80; % inhibition compared with maximum achievable inhibition; read-out: B1R antagonism, human (10 μM] % inhibition
T2 construct: expressed in transfected cells; host or cells: CHO K1 cells (Chinese hamster ovary), stably transfected
T2 sequence (P46663 1-353): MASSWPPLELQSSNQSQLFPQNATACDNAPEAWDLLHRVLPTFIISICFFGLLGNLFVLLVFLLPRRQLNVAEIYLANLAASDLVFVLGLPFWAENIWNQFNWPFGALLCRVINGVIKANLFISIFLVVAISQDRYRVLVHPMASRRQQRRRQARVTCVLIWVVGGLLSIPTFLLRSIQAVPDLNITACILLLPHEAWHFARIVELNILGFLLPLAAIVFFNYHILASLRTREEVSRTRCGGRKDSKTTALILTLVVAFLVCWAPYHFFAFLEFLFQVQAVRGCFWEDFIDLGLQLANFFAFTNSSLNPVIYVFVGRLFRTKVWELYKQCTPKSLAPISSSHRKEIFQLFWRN
Experimental: The agonistic or antagonistic action of substances can be quantified on the bradykinin 1 receptor (B1R) of the human and rat species with ectopically expressing cell lines (CHO K1 cells) and with the aid of a Ca^2+-sensitive dyestuff (Fluo-4) in a fluorescent imaging plate reader (FLIPR). The figure in % activation is based on the Ca^2+ signal after addition of Lys-Des-Arg^9-bradykinin (0.5 nM) or Des-Arg^9-bradykinin (100 nM). Antagonists lead to a suppression of the Ca^2+ inflow after addition of the agonist. % inhibition compared with the maximum achievable inhibition is stated.
The agonistic or antagonistic action of substances can be determined on the bradykinin 1 receptor (B1R) of the human and rat species with the following assay. In accordance with this assay, the Ca^2+ inflow through the channel is quantified with the aid of a Ca^2+-sensitive dyestuff (type Fluo-4, Molecular Probes Europe BV, Leiden, Holland) in a fluorescent imaging plate reader (FLIPR, Molecular Devices, Sunnyvale, USA).
Chinese hamster ovary cells (CHO K1 cells) transfected stably with the human B1R gene (hB1R cells) or the B1R gene of the rat (rB1R cells) are used. For functional studies, these cells are plated out on black 96-well plates with a clear base (BD Biosciences, Heidelberg, Germany or Greiner, Frickenhausen, Germany) in a density of 20,000-35,000 cells/well. The cells are left overnight at 37° C. and 5% CO2 in culture medium (hB1R cells: Nutrient Mixture Ham's F12, Gibco Invitrogen GmbH, Karlsruhe, Germany or DMEM, Sigma-Aldrich, Taufkirchen, Germany; rB1R cells: D-MEM/F12, Gibco Invitrogen GmbH, Karlsruhe, Germany) with 10 vol. % FBS (foetal bovine serum, Gibco Invitrogen GmbH, Karlsruhe, Germany or PAN Biotech GmbH, Aidenbach, Germany). On the following day, the cells are loaded for 60 min at 37° C. with 2.13 μM Fluo-4 (Molecular Probes Europe BV, Leiden, Holland) in HBSS buffer (Hank's buffered saline solution, Gibco Invitrogen GmbH, Karlsruhe, Germany) with 2.5 mM probenecid (Sigma-Aldrich, Taufkirchen, Germany) and 10 mM HEPES (Sigma-Aldrich, Taufkirchen, Germany). The plates are then washed 2× with HBSS buffer, and HBSS buffer which additionally contains 0.1% BSA (bovine serum albumin; Sigma-Aldrich, Taufkirchen, Germany), 5.6 mM glucose and 0.05% gelatine (Merck KgaA, Darmstadt, Germany) is added. After a further incubation of 20 minutes at room temperature, the plates are inserted into the FLIPR for the Ca^2+ measurement.
Alternatively, the plates are washed with buffer A (15 mM HEPES, 80 mM NaCl, 5 mM KCl, 1.2 mM CaCl2, 0.7 mM MgSO4, 2 g/l glucose, 2.5 mM probenecid), buffer A is added and the plates are loaded with 2.5 μM Fluo-4 and 0.025% Pluronic F127 (Sigma-Aldrich, Taufkirchen, Germany). Thereafter, the cells are washed 2× with buffer A and incubated for 30 minutes with buffer A, which additionally contains 0.05% BSA and 0.05% gelatine, at room temperature and thereafter inserted into the FLIPR for the Ca^2+ measurement. The Ca^2+-dependent fluorescence is measured here before and after addition of substances (λex=488 nm, λem=540 nm). Quantification is by measurement of the highest fluorescence intensity (FC, fluorescence counts) over time.
The FLIPR protocol consists of 2 additions of substance. Test substances (10 μM) are first pipetted on to the cells and the Ca^2+ inflow is compared with the control (hB1R: Lys-Des-Arg^9-bradykinin >=50 nM; rB1R: Des-Arg^9-bradykinin 10 μM). This gives the figure in % activation based on the Ca^2+ signal after addition of Lys-Des-Arg^9-bradykinin (>=50 nM) or Des-Arg^9-bradykinin (10 μM). After incubation for 10-20 minutes, Lys-Des-Arg^9-bradykinin (hB1R) or Des-Arg^9-bradykinin (rB1R) in the concentration of the EC80 is applied and the inflow of Ca^2+ is likewise determined. Antagonists lead to a suppression of the Ca^2+ inflow. % inhibition compared with the maximum achievable inhibition is calculated. In order to determine the IC50 value, the substances are added in various concentrations. […]

## CCC1c2ccsc2CCN1C(=O)CCCC1CCCCN1S(=O)(=O)c1c(C)cc(OC)cc1C (stereo not shown) [Example 23, 1-(4-Ethyl-6,7-dihydrothieno[3,2-c]pyridin-5(4H)-yl)-4-(1-(4-methoxy-2,6-dimethylphenylsulfonyl)piperidin-2-yl)butan-1-one]
[1]
  inhibition at 10 µM: 105%
[2]
  inhibition at 10 µM: 91%

## COc1cc(C)c(S(=O)(=O)N2CCCCC2COCC(=O)N2CCc3onc(-c4ccncc4)c3C2)c(C)c1 (stereo not shown) [Example 02, 2-((1-(4-methoxy-2,6-dimethylphenylsulfonyl)piperidin-2-yl)methoxy)-1-(3-(pyridin-4-yl)-6,7-dihydroisoxazolo[4,5-c]pyridin-5(4H)-yl)ethanone]
[1]
  inhibition at 10 µM: 101%
[2]
  inhibition at 10 µM: 100%

## COc1cc(C)c(S(=O)(=O)N2c3ccccc3CC[C@H]2COCC(=O)N2CCc3onc(-c4ccncc4)c3C2)c(C)c1 [Example 125, 2-[[(2S)-1-[(4-Methoxy-2,6-dimethyl-phenyl)sulfonyl]-1,2,3,4-tetrahydro-quinolin-2-yl]-methoxy]-1-(3-pyridin-4-yl-4,5,6,7-tetrahydro-isoxazolo[4,5-c]pyridin-5-yl)-ethanone]
[1]
  inhibition at 10 µM: 102%
[2]
  inhibition at 10 µM: 75%

## COc1cc(C)c(S(=O)(=O)N2CCCCC2COCC(=O)N2CCc3onc(CN4CCOCC4)c3C2)c(C)c1 (stereo not shown) [Example 29, 2-((1-(4-methoxy-2,6-dimethylphenylsulfonyl)piperidin-2-yl)methoxy)-1-(3-(morpholinomethyl)-6,7-dihydroisoxazolo[4,5-c]pyridin-5(4H)-yl)ethanone]
[1]
  inhibition at 10 µM: 101%
[2]
  inhibition at 10 µM: 99%

## Cc1cccc(Cl)c1S(=O)(=O)N(CCOCC(=O)N1CCc2sc(CN3CC(F)(F)C3)cc2C1)C1CC1 [Example 57, 2-Chloro-N-cyclopropyl-N-[2-[2-[2-[(3,3-difluoro-azetidin-1-yl)-methyl]-4,5,6,7-tetrahydro-thieno[3,2-c]pyridin-5-yl]-2-oxo-ethoxy]-ethyl]-6-methyl-benzenesulfonic acid amide]
[1]
  inhibition at 10 µM: 99%
[2]
  inhibition at 10 µM: 100%

## CN1CCN(Cc2cc3c(s2)CCN(C(=O)CC2CCCCN2S(=O)(=O)c2cccc(C(F)(F)F)c2)C3)CC1 (stereo not shown) [Example 44, 1-(2-((4-methylpiperazin-1-yl)methyl)-6,7-dihydrothieno[3,2-c]pyridin-5(4H)-yl)-2-(1-(3-(trifluoromethyl)phenylsulfonyl)piperidin-2-yl)ethan-1-one]
[1]
  inhibition at 10 µM: 59%
[2]
  inhibition at 10 µM: 83%

## COc1cc(C)c(S(=O)(=O)N(C)CCOCC(=O)N2CCc3onc(CN4CCOCC4)c3C2)c(C)c1 [Example 30, 4-methoxy-N,2,6-trimethyl-N-(2-(2-(3-(morpholinomethyl)-6,7-dihydroisoxazolo[4,5-c]pyridin-5(4H)-yl)-2-oxoethoxy)ethyl)benzenesulfonamide]
[1]
  inhibition at 10 µM: 104%
[2]
  inhibition at 10 µM: 99%

## Cc1ccc(C2c3ccsc3CCN2C(=O)C[C@@H](NS(=O)(=O)c2ccc3ccccc3c2)c2ccccc2)cc1 (stereo partly drawn) [Example 20, N-((1R)-3-oxo-1-phenyl-3-(4-p-tolyl-6,7-dihydrothieno[3,2-c]pyridin-5(4H)-yl)propyl)naphthalene-2-sulfonamide]
[1]
  inhibition at 10 µM: 96%
[2]
  inhibition at 10 µM: 11%

## COc1cc(C)c(S(=O)(=O)N2CCCCC2COCC(=O)N2CCc3onc(CN4CCCCC4)c3C2)c(C)c1 (stereo not shown) [Example 09, 2-((1-(4-methoxy-2,6-dimethylphenylsulfonyl)piperidin-2-yl)methoxy)-1-(3-(piperidin-1-ylmethyl)-6,7-dihydroisoxazolo[4,5-c]pyridin-5(4H)-yl)ethanone]
[1]
  inhibition at 10 µM: 105%
[2]
  inhibition at 10 µM: 100%

## COc1cc(C)c(S(=O)(=O)N2CCCCC2CCC(=O)N2CCc3nc(Cc4ccncc4)sc3C2)c(C)c1 (stereo not shown) [Example 41, 3-(1-(4-methoxy-2,6-dimethylphenylsulfonyl)piperidin-2-yl)-1-(2-(pyridin-4-ylmethyl)-6,7-dihydrothiazolo[5,4-c]pyridin-5(4H)-yl)propan-1-one]
[1]
  inhibition at 10 µM: 99%
[2]
  inhibition at 10 µM: 64%

## COc1cc(C)c(S(=O)(=O)N2CCCCC2CCC(=O)N2CCc3sc(CN4CCN(C)CC4)cc3C2)c(C)c1 (stereo not shown) [Example 45, 3-(1-(4-methoxy-2,6-dimethylphenylsulfonyl)piperidin-2-yl)-1-(2-((4-methylpiperazin-1-yl)methyl)-6,7-dihydrothieno[3,2-c]pyridin-5(4H)-yl)propan-1-one]
[1]
  inhibition at 10 µM: 99%
[2]
  inhibition at 10 µM: 98%

## COc1cc(C)c(S(=O)(=O)N(C)CCOCC(=O)N2CCc3sc(CN4CCN(C)CC4)cc3C2)c(C)c1 [Example 51, 4-methoxy-N,2,6-trimethyl-N-(2-(2-(2-((4-methylpiperazin-1-yl)methyl)-6,7-dihydrothieno[3,2-c]pyridin-5(4H)-yl)-2-oxoethoxy)ethyl)benzenesulfonamide]
[1]
  inhibition at 10 µM: 103%
[2]
  inhibition at 10 µM: 100%

## COc1cc(C)c(S(=O)(=O)N2c3ccccc3CC[C@H]2COCC(=O)N2CCc3sc(CN4CCCCC4)cc3C2)c(C)c1 [Example 61, 2-[[(2S)-1-[(4-methoxy-2,6-dimethyl-phenyl)sulfonyl]-1,2,3,4-tetrahydro-quinolin-2-yl]-methoxy]-1-[2-(piperidin-1-yl-methyl)-4,5,6,7-tetrahydro-thieno[3,2-c]pyridin-5-yl]-ethanone]
[1]
  inhibition at 10 µM: 106%
[2]
  inhibition at 10 µM: 100%

## Cc1cccc(C2c3ccsc3CCN2C(=O)CCC2CCCCN2S(=O)(=O)c2cc(C)c(Cl)cc2C)c1 (stereo not shown) [Example 10, 3-(1-(4-chloro-2,5-dimethylphenylsulfonyl)piperidin-2-yl)-1-(4-m-tolyl-6,7-dihydrothieno[3,2-c]pyridin-5(4H)-yl)propan-1-one]
[1]
  inhibition at 10 µM: 105%
[2]
  inhibition at 10 µM: 78%
